Assays:
ACAT = ACAT Assay (in vitro); assay type: biochemical; settings: dose = 10 μM; rat liver microsomes
Description: This assay measures the activity of ACAT by measuring the ACAT-mediated transfer of tritiated oleic acid from acyl-CoA to cholesterol to give labelled cholesterol oleate. Rat liver microsomes are used as the source of ACAT. Assays are performed in round bottom microtiterplates using a total incubation volume of 50 μL. Each incubation well receives 10 μL assay buffer (0.5M KHPO4, 10 μM dithiothreitol, pH 7.4), 7.5 μL of 40 mg/mL BSA (Bovine Serum Albumin) and 12.5 μg of microsomal protein. The test compound (in sufficient amount to bring the final concentration to from 0.1 to 25 μM), reference compound, or vehicle control is added and the final volume brought to 47 μL. The microtiterplate is then floated on the surface of a 37° C. water bath for fifteen minutes. Incubations are started by the addition of 3 μL ^3 H-acyl CoA (1 μCi/well, final concentration of 10 μM acyl CoA). The plate is then returned to the water bath for 15 minutes. The incubations are then terminated by application of 15 μL from each incubation to individual lanes on a thin layer plate (Silica Gel GF 20×20 cm). Standards are applied to several lanes so that the cholesterol ester band can be identified. After drying, the plates are eluted with 90:10:1 petroleum ether:ether:HOAc. The standards are visualized via iodine vapor, and the regions corresponding to cholesterol ester are scraped into 7 mL scintillation vials. 4 mL of scintillant are added to each vial, and the radioactivity quantified. Background count is determined by the boiled controls. Full activity is determined by activity in the presence of vehicle. The percent inhibition is calculated by subtracting the background from both control and test samples, and the test value is calculated as a percentage of the control. For IC50 determinations, the inhibition is plotted against drug doses on a log scale and the concentration at which 50% inhibition is obtained is determined.
(§1) Using the assay methods described above, the compounds of Examples 1-9 were tested for in vitro ACAT inhibitory activity and for the ability to lower the level of cholesteryl esters in vivo.

cholesteryl esters = assay: In Vivo Assay of Hypolipidemic Agents Using the Hyperlipidemic Hamster; settings: Mesocricetus auratus, po, 168 h, oral gavage once daily, 7 days, versus control, read-out: % Reduction in cholesteryl esters; for change in vivo at 50 mg/kg: 50 mpk; for change in vivo at 10 mg/kg: 10 mpk; for change in vivo at 100 mg/kg: 100 mpk
Description: In Vivo Assay of Hypolipidemic Agents Using the Hyperlipidemic Hamster
Hamsters are separated into groups of six and given a control cholesterol diet (Pudna Chow #5001 containing 0.5% cholesterol) for seven days. Diet consumption is monitored to determine dietary cholesterol exposure in the face of test compounds. The animals are dosed with the test compound once daily beginning with the initiation of diet. Dosing is by oral gavage of 0.2 mL of corn oil alone (control group) or solution (or suspension) of test compound in corn oil. All animals moribund or in poor physical condition are euthanized. After seven days, the animals are anesthetized by […] of ketamine and sacrificed by decapitation. Blood is collected into vacutainer tubes containing EDTA for plasma lipid analysis and the liver excised for tissue lipid analysis. Data is reported as percent reduction of lipid versus control.
as §1

| Compound | ACAT % Inhibition (ACAT) | change in vivo at 50 mg/kg (cholesteryl esters) | change in vivo at 10 mg/kg (cholesteryl esters) | change in vivo at 100 mg/kg (cholesteryl esters) | change in vivo at 25 mg/kg (cholesteryl esters; 25 mpk) |
| --- | --- | --- | --- | --- | --- |
| O=C(N[C@@H]1c2cc(O)ccc2CC[C@H]1c1ccccc1)C(c1ccccc1)c1ccccc1 (relative stereo) [Example 3Q] | 94% | -78% |  |  |  |
| O=C(N[C@H]1c2ccccc2C[C@H]1c1cccc([N+](=O)[O-])c1)C(c1ccccc1)c1ccccc1 (relative stereo) [Example 2C] | 99% | 0% |  |  |  |
| O=C(N[C@@H]1c2ccccc2C[C@@H]1c1ccc(O)c(Br)c1)C(c1ccccc1)c1ccccc1 (single isomer, unassigned) [Example 7, (+)-cis-N-[2-(3'-bromo-4'-hydroxyphenyl]indanyl]-α-phenylbenzeneacetamide] | 100% | -40% |  |  |  |
| O=C(N[C@@H]1c2ccccc2CC[C@H]1c1ccc(O)cc1)N(c1ccccc1)c1ccccc1 (relative stereo) [Example 3I] | 99% | -16% |  |  |  |
| COc1ccc([C@H]2Cc3ccccc3[C@@H]2NC(=O)C(c2ccccc2)c2ccccc2)cc1 (relative stereo) [Example 2F] | 19% | 0% |  |  |  |
| O=C(N[C@@H]1c2ccccc2C[C@@H]1c1ccc(O)c(Cl)c1)C(c1ccccc1)c1ccccc1 (relative stereo) [Example 8, cis-N-[2-(3'-chloro-4'-hydroxyphenyl)indanyl]-α-phenylbenzeneacetamid] | 99% | -40% |  |  |  |
| CCCCCCCC/C=C\CCCCCCCC(=O)N[C@@H]1c2ccccc2CC[C@H]1c1ccc(O)cc1 (relative stereo) [Example 4, trans-N-[2-(4'-hydroxyphenyl)-1,2,3,4-tetrahydronaphth-1-yl]oleamide] | 94% | 0% |  |  |  |
| CCCCCCCCCC(C)(C)C(=O)N[C@H]1c2ccccc2CC[C@@H]1c1ccc(OC)cc1 (relative stereo) [Example 1F] | 36% | 0% |  |  |  |
| COc1ccc([C@@H]2CCCc3ccccc3[C@@H]2NC(=O)C(c2ccccc2)c2ccccc2)cc1 (relative stereo) [Example 1H] | 84% | 0% |  |  |  |
| O=C(N[C@@H]1c2cc(O)ccc2CC[C@@H]1c1ccccc1)C(c1ccccc1)c1ccccc1 (relative stereo) [Example 3P] | 75% | 0% |  |  |  |
| Nc1cccc([C@H]2Cc3ccccc3[C@H]2NC(=O)C(c2ccccc2)c2ccccc2)c1 (relative stereo) [Example 5A, cis-N-[2-(3'-aminophenyl)indanyl]-α-phenylbenzeneacetamide] | 95% |  | 0% |  |  |
| O=C(N[C@@H]1c2ccccc2C[C@@H]1c1cccc(O)c1)C(c1ccccc1)c1ccccc1 (relative stereo) [Example 3B] | 97% | 0% |  |  |  |
| CCCCCCCCCC(C)(C)C(=O)N[C@@H]1c2ccccc2CC[C@H]1c1ccc(O)cc1 (relative stereo) [Example 3H] | 86% | 0% |  |  |  |
| O=C(N[C@H]1c2ccccc2OC[C@H]1c1ccccc1)C(c1ccccc1)c1ccccc1 (relative stereo) [Example 1E] | 40% | 0% |  |  |  |
| CCCCCCCC/C=C\CCCCCCCC(=O)N[C@H]1c2ccccc2OC[C@H]1c1ccccc1 (relative stereo) [Example 2N] | 85% |  |  | 0% |  |
| CCCCCCCC/C=C\CCCCCCCC(=O)N[C@H]1c2ccccc2CC[C@@H]1c1ccccc1 (relative stereo) [Example 2M] | 99% |  |  | 0% |  |
| COc1ccc([C@H]2CCc3ccccc3[C@@H]2NC(=O)N(c2ccccc2)c2ccccc2)cc1 (relative stereo) [Example 6, trans-N'-[2-(4'-methoxyphenyl)-1,2,3,4-tetrahydronaphthalen-1-yl]-N,N-diphenylurea] | 97% | -16% |  |  |  |
| CCCCCCCC/C=C\CCCCCCCC(=O)N[C@H]1c2ccccc2CC[C@@H]1c1ccc(OC)cc1 (relative stereo) [Example 2H] | 81% |  |  | 0% |  |
| O=C(N[C@@H]1c2ccccc2CC[C@@H]1c1ccc(O)cc1)C(c1ccccc1)c1ccccc1 (relative stereo) [Example 3F] | 91% | -16% |  |  |  |
| Cc1cc([C@H]2Cc3ccccc3[C@H]2NC(=O)C(c2ccccc2)c2ccccc2)ccc1O (single isomer, unassigned) [Example 9, (+)-cis-N-[2-(4'-hydroxy-3'-methylphenyl)indanyl]-α-phenylbenzeneacetamide] | 98% | -66% |  |  |  |
| O=C(N[C@H]1c2ccccc2OC[C@@H]1c1ccccc1)C(c1ccccc1)c1ccccc1 (relative stereo) [Example 1M] | 85% | 0% |  |  |  |
| O=C(N[C@@H]1c2ccc(O)cc2CC[C@H]1c1ccccc1)C(c1ccccc1)c1ccccc1 (relative stereo) [Example 3N] | 92% | 0% |  |  |  |
| COc1cccc([C@@H]2Cc3ccccc3[C@@H]2NC(=O)C(c2ccccc2)c2ccccc2)c1 (relative stereo) [Example 2A] | 99% | 0% |  |  |  |
| Cc1cc([C@H]2Cc3ccccc3[C@H]2NC(=O)C(c2ccccc2)c2ccccc2)cc(C)c1O (single isomer, unassigned) [Example 9A, (+)-cis-N-[2-(3',5'-dimethyl-4'-hydroxyphenyl)indanyl]-α-phenylbenzeneacetamide] | 97% | -60% |  |  |  |
| CCCCCCCC/C=C\CCCCCCCC(=O)N[C@@H]1c2ccccc2CC[C@@H]1c1ccc(O)cc1 (relative stereo) [Example 4A] | 81% | 0% |  |  |  |
| O=C(N[C@@H]1c2ccc(O)cc2CC[C@@H]1c1ccccc1)C(c1ccccc1)c1ccccc1 (relative stereo) [Example 3M] | 87% | -45% |  |  |  |
| CCCCCCCC/C=C\CCCCCCCC(=O)N[C@H]1c2ccccc2CC[C@H]1c1ccc(OC)cc1 (relative stereo) [Example 2G] | 73% |  |  | 0% |  |
| O=C(N[C@H]1c2ccccc2C[C@H]1c1ccc(O)cc1)C(c1ccccc1)c1ccccc1 (relative stereo) [Example 3, cis-N-[2-(4'-hydroxyphenyl)indanyl]-αphenylbenzeneacetamide] | 99% | -89% | -71% |  | -87.5% |
